Results from patent US10617693B2, “Methods of treating and/or preventing actinic keratosis” (Athenex, Inc., priority 2017, dated 2020).

System: subjects with AK on the face or scalp
Test: Phase 2a study KX01-AK-002: local skin reactions (grade 0 not present to 4 worst) and adverse events, 0.5 mg KX-01 on 25 cm^2
Type: in vivo, human
Source text: An ongoing Phase 2a, open-label, multicenter, activity and safety study of KX-01 administered topically in subjects with AK on the face or scalp is described herein. […] Secondary objectives are to assess the activity of KX-01 administered topically during Days 1-57 based on reduction of AK lesion counts from baseline, assess the safety and tolerability and pharmacokinetics, and contrast the dose regimens (5-day treatment with 3-day treatment) in terms of activity and safety in subjects with AK on the face or scalp. This uncontrolled, nonrandomized trial is being conducted at 16 investigational sites in the United States. Enrollment is sequential for 2 cohorts of approximately 80 subjects each. Enrollment is closed for Cohort 1 and ongoing for Cohort 2. The two treatment cohorts are summarized below: • Cohort 1: 0.5 mg KX-01 administered topically to a contiguous treatment area of 25 cm^2 with 4-8 clinically typical AK lesions for 5 consecutive days • Cohort 2: 0.5 mg KX-01 administered topically to a contiguous treatment area of 25 cm^2 with 4-8 clinically typical AK lesions for 3 consecutive days
0.5 mg KX-01 is administered topically to an area of 25 cm^2 on the face or scalp by site staff on treatment days. […] AK lesion counts are recorded at baseline, days 8, 15, 29, and 57. […] Standardized photography of treatment area is performed at baseline, day 8 and day 57. Plasma samples are being collected at preplanned time points on days 1 and 5 for Cohort 1, and on days 1 and 3 for Cohort 2.
Absence or presence of hyperpigmentation, hypopigmentation and scarring are also assessed. Application site reactions not classified as LSRs are reported as AEs. […] LSRs and AEs are reported separately. All LSRs, pigmentation, and scarring in the treatment area will be followed to resolution or stabilization.
The range of possible composite scores is 0-24.
The Phase 2a trial described in Example 2a was completed with 84 eligible subjects enrolled in each of two cohorts: one cohort was subjected to the treatment for 5 consecutive days, and the other cohort was subjected to the treatment for 3 consecutive days. The results are described below and in FIG. 5.

O=C(Cc1ccc(-c2ccc(OCCN3CCOCC3)cc2)cn1)NCc1ccccc1 [KX-01]
Crusting maximal post-baseline grade 0, subjects (%) (3-day, N = 84): 58 (69%)
Crusting maximal post-baseline grade 1, subjects (%) (3-day, N = 84): 16 (19%)
Crusting maximal post-baseline grade 2, subjects (%) (3-day, N = 84): 9 (11%)
Crusting maximal post-baseline grade 3, subjects (%) (3-day, N = 84): 1 (1%)
Crusting maximal post-baseline grade 4, subjects (%) (3-day, N = 84): 0 (0%)
Erosion/Ulceration maximal post-baseline grade 0, subjects (%) (3-day, N = 84): 79 (94%)
Erosion/Ulceration maximal post-baseline grade 1, subjects (%) (3-day, N = 84): 5 (6%)
Erosion/Ulceration maximal post-baseline grade 2, subjects (%) (3-day, N = 84): 0 (0%)
Erosion/Ulceration maximal post-baseline grade 3, subjects (%) (3-day, N = 84): 0 (0%)
Erosion/Ulceration maximal post-baseline grade 4, subjects (%) (3-day, N = 84): 0 (0%)
Erythema maximal post-baseline grade 0, subjects (%) (3-day, N = 84): 30 (36%)
Erythema maximal post-baseline grade 1, subjects (%) (3-day, N = 84): 22 (26%)
Erythema maximal post-baseline grade 2, subjects (%) (3-day, N = 84): 26 (31%)
Erythema maximal post-baseline grade 3, subjects (%) (3-day, N = 84): 6 (7%)
Erythema maximal post-baseline grade 4, subjects (%) (3-day, N = 84): 0 (0%)
Flaking/Scaling maximal post-baseline grade 0, subjects (%) (3-day, N = 84): 39 (46%)
Flaking/Scaling maximal post-baseline grade 1, subjects (%) (3-day, N = 84): 18 (21%)
Flaking/Scaling maximal post-baseline grade 2, subjects (%) (3-day, N = 84): 19 (23%)
Flaking/Scaling maximal post-baseline grade 3, subjects (%) (3-day, N = 84): 8 (10%)
Flaking/Scaling maximal post-baseline grade 4, subjects (%) (3-day, N = 84): 0 (0%)
Swelling maximal post-baseline grade 0, subjects (%) (3-day, N = 84): 76 (90%)
Swelling maximal post-baseline grade 1, subjects (%) (3-day, N = 84): 8 (10%)
Swelling maximal post-baseline grade 2, subjects (%) (3-day, N = 84): 0 (0%)
Swelling maximal post-baseline grade 3, subjects (%) (3-day, N = 84): 0 (0%)
Swelling maximal post-baseline grade 4, subjects (%) (3-day, N = 84): 0 (0%)
Vesiculation/Pustulation maximal post-baseline grade 0, subjects (%) (3-day, N = 84): 83 (99%)
Vesiculation/Pustulation maximal post-baseline grade 1, subjects (%) (3-day, N = 84): 0 (0%)
Vesiculation/Pustulation maximal post-baseline grade 2, subjects (%) (3-day, N = 84): 1 (1%)
Vesiculation/Pustulation maximal post-baseline grade 3, subjects (%) (3-day, N = 84): 0 (0%)
Vesiculation/Pustulation maximal post-baseline grade 4, subjects (%) (3-day, N = 84): 0 (0%)
Local safety profile compared to Picato (5-day treatment, cross-study): more benign local safety profile
Crusting maximal post-baseline grade 0, subjects (%) (5-day, N = 84): 51 (61%)
Crusting maximal post-baseline grade 1, subjects (%) (5-day, N = 84): 25 (30%)
Crusting maximal post-baseline grade 2, subjects (%) (5-day, N = 84): 8 (10%)
Crusting maximal post-baseline grade 3, subjects (%) (5-day, N = 84): 0 (0%)
Crusting maximal post-baseline grade 4, subjects (%) (5-day, N = 84): 0 (0%)
Erosion/Ulceration maximal post-baseline grade 0, subjects (%) (5-day, N = 84): 71 (85%)
Erosion/Ulceration maximal post-baseline grade 1, subjects (%) (5-day, N = 84): 12 (14%)
Erosion/Ulceration maximal post-baseline grade 2, subjects (%) (5-day, N = 84): 1 (1%)
Erosion/Ulceration maximal post-baseline grade 3, subjects (%) (5-day, N = 84): 0 (0%)
Erosion/Ulceration maximal post-baseline grade 4, subjects (%) (5-day, N = 84): 0 (0%)
Erythema maximal post-baseline grade 0, subjects (%) (5-day, N = 84): 15 (18%)
Erythema maximal post-baseline grade 1, subjects (%) (5-day, N = 84): 16 (19%)
Erythema maximal post-baseline grade 2, subjects (%) (5-day, N = 84): 35 (42%)
Erythema maximal post-baseline grade 3, subjects (%) (5-day, N = 84): 17 (20%)
Erythema maximal post-baseline grade 4, subjects (%) (5-day, N = 84): 1 (1%)
Flaking/Scaling maximal post-baseline grade 0, subjects (%) (5-day, N = 84): 33 (39%)
Flaking/Scaling maximal post-baseline grade 1, subjects (%) (5-day, N = 84): 10 (12%)
Flaking/Scaling maximal post-baseline grade 2, subjects (%) (5-day, N = 84): 24 (29%)
Flaking/Scaling maximal post-baseline grade 3, subjects (%) (5-day, N = 84): 16 (19%)
Flaking/Scaling maximal post-baseline grade 4, subjects (%) (5-day, N = 84): 1 (1%)
Swelling maximal post-baseline grade 0, subjects (%) (5-day, N = 84): 66 (79%)
Swelling maximal post-baseline grade 1, subjects (%) (5-day, N = 84): 16 (19%)
Swelling maximal post-baseline grade 2, subjects (%) (5-day, N = 84): 1 (1%)
Swelling maximal post-baseline grade 3, subjects (%) (5-day, N = 84): 1 (1%)
Swelling maximal post-baseline grade 4, subjects (%) (5-day, N = 84): 0 (0%)
Vesiculation/Pustulation maximal post-baseline grade 0, subjects (%) (5-day, N = 84): 80 (95%)
Vesiculation/Pustulation maximal post-baseline grade 1, subjects (%) (5-day, N = 84): 4 (5%)
Vesiculation/Pustulation maximal post-baseline grade 2, subjects (%) (5-day, N = 84): 0 (0%)
Vesiculation/Pustulation maximal post-baseline grade 3, subjects (%) (5-day, N = 84): 0 (0%)
Vesiculation/Pustulation maximal post-baseline grade 4, subjects (%) (5-day, N = 84): 0 (0%)
Crusting maximal post-baseline grade 0, subjects (%) (5-day, interim N = 67): 41 (61%)
Crusting maximal post-baseline grade 1, subjects (%) (5-day, interim N = 67): 20 (30%)
Crusting maximal post-baseline grade 2, subjects (%) (5-day, interim N = 67): 6 (9%)
Crusting maximal post-baseline grade 3, subjects (%) (5-day, interim N = 67): 0 (0%)
Crusting maximal post-baseline grade 4, subjects (%) (5-day, interim N = 67): 0 (0%)
Erosion/Ulceration maximal post-baseline grade 0, subjects (%) (5-day, interim N = 67): 57 (85%)
Erosion/Ulceration maximal post-baseline grade 1, subjects (%) (5-day, interim N = 67): 9 (13%)
Erosion/Ulceration maximal post-baseline grade 2, subjects (%) (5-day, interim N = 67): 1 (1%)
Erosion/Ulceration maximal post-baseline grade 3, subjects (%) (5-day, interim N = 67): 0 (0%)
Erosion/Ulceration maximal post-baseline grade 4, subjects (%) (5-day, interim N = 67): 0 (0%)
Erythema maximal post-baseline grade 0, subjects (%) (5-day, interim N = 67): 7 (10%)
Erythema maximal post-baseline grade 1, subjects (%) (5-day, interim N = 67): 16 (24%)
Erythema maximal post-baseline grade 2, subjects (%) (5-day, interim N = 67): 32 (48%)
Erythema maximal post-baseline grade 3, subjects (%) (5-day, interim N = 67): 12 (18%)
Erythema maximal post-baseline grade 4, subjects (%) (5-day, interim N = 67): 0 (0%)
Flaking/Scaling maximal post-baseline grade 0, subjects (%) (5-day, interim N = 67): 20 (30%)
Flaking/Scaling maximal post-baseline grade 1, subjects (%) (5-day, interim N = 67): 14 (21%)
Flaking/Scaling maximal post-baseline grade 2, subjects (%) (5-day, interim N = 67): 20 (30%)
Flaking/Scaling maximal post-baseline grade 3, subjects (%) (5-day, interim N = 67): 13 (19%)
Flaking/Scaling maximal post-baseline grade 4, subjects (%) (5-day, interim N = 67): 0 (0%)
Swelling maximal post-baseline grade 0, subjects (%) (5-day, interim N = 67): 53 (79%)
Swelling maximal post-baseline grade 1, subjects (%) (5-day, interim N = 67): 12 (18%)
Swelling maximal post-baseline grade 2, subjects (%) (5-day, interim N = 67): 1 (1%)
Swelling maximal post-baseline grade 3, subjects (%) (5-day, interim N = 67): 1 (1%)
Swelling maximal post-baseline grade 4, subjects (%) (5-day, interim N = 67): 0 (0%)
Vesiculation/Pustulation maximal post-baseline grade 0, subjects (%) (5-day, interim N = 67): 64 (96%)
Vesiculation/Pustulation maximal post-baseline grade 1, subjects (%) (5-day, interim N = 67): 3 (4%)
Vesiculation/Pustulation maximal post-baseline grade 2, subjects (%) (5-day, interim N = 67): 0 (0%)
Vesiculation/Pustulation maximal post-baseline grade 3, subjects (%) (5-day, interim N = 67): 0 (0%)
Vesiculation/Pustulation maximal post-baseline grade 4, subjects (%) (5-day, interim N = 67): 0 (0%)
Day from which LSRs were generally observable (Cohort 1 (5-day)): 3 days
Subjects with erosion/ulceration (Cohort 1 (5-day), 67 subjects with day 57 visit): 9
